Where a SMILES comes first, the peptide text is derived from it. The star is where a group is joined. X1 = O=C(CCCC(=O)*)OCc1cc(O)c2c(c1)C(=O)c1cccc(O)c1C2=O
Experiments:
[1] = test system: NK-92 cells; test: Apoptosis in NK-92 cells, Annexin V-FITC flow cytometry; format: cell-based, Human; settings: 48 h
Method: (§1) Apoptosis was quantified using FITC-conjugated annexin V (AV) according to the manufacturer’s protocol (Marine Biological Laboratory, Woods Hole, MA, USA). Annexin V-FITC staining in NK-92 cell lines was determined after 48 h in the absence or presence of different amounts of Aloe-emodin (9 mM stock solution in DMSO) ranging from 6.25 to 50 μM. Proliferation was evaluated by measuring Ki-67 nuclear antigen expression using FITC-labeled anti-human Ki-67 mAb according to the manufacturer’s protocol (BD Biosciences, San Jose, CA, USA). Acquisition was performed on a FACSCalibur flow cytometer (BD Biosciences) and at least 10,000 events per sample were run. Data were analyzed using the Cell Quest Pro software (BD Biosciences) and expressed as mean ± standard deviation from 2 independent experiments.

[2] = test system: NK-92 cells; test: Proliferation of NK-92 cells, Ki-67 flow cytometry; format: cell-based, Human; settings: 48 h, all concentrations except 50 μM
Method: as §1

[3] = test system: SKBR3 cells; test: MTT cell viability assay in SKBR3 cells; format: cell-based, Human
Method: (§2) The compounds (2), (3), and (6), were evaluated for cell viability effects using the MTT assay on SKBR3 and A549 cells at 24, 48, and 72 h at different concentrations. Cell lines were seeded into 96-well microtiter plates (Corning, Inc., Corning, NY, USA) at a density of 1 × 10^4 cells/well. After 24 h, cells were exposed to increased concentrations of compounds (previously prepared in PBS to obtain a stock solution of 1 mM) in cell culture medium. After an incubation time of 24, 48, and 72 h, media were removed and MTT (Sigma, Deisenhofen, Germany) diluted in culture media was added to each well at 0.5 mg/mL. Plates were incubated for 2 h at 37 °C in 5% CO2 incubator; unreacted dye was removed, and cells were solubilized in DMSO (Merck, Darmstadt, Germany). Absorbance was read at 570 nm by an ELISA plate reader (Biorad). Data were expressed as cell metabolic activity, which was calculated as the absorbance value of cells treated with different compounds/absorbance value of control (cells incubated with vehicle alone) cells * 100%. All experiments were performed in triplicate, and all data were expressed as the mean ± standard deviation. One-way ANOVA with Dunnett’s multiple comparisons test was performed with respect to the controls (**** p < 0.0001).

[4] = test system: A549 cells; test: MTT cell viability assay in A549 cells; format: cell-based, Human
Method: as §2

[5] = test system: NK-92 cells; test: Growth inhibition of NK92 cells, WST-8 assay; settings: 20, 10, 5 and 1 µM, 24, 48 and 72 h, WST-8, two independent experiments
Method: NK-92 cell lines in exponential phase of growth were collected, extensively washed with warm RPMI-1640, and seeded (in triplicate) in 96-well microtiter Costar plates (Costar, Rochester, NY, USA) at a density of 5 × 10^3 cells/mL. The cells were cultured in BM containing recombinant IL-2(100 IU/mL). In the growth inhibition assays, NK92 cells were maintained for 24, 48, and 72 h at 37 °C alone or in the presence of 20, 10, 5, and 1 µM of Aloe-emodin, glutaryl derivatives of AE and AE-CPP-LTV (6). For all above-described experiments, cell survival was determined by WST-8 assay (Orangu™ Cell Counting SolutionWST-8 cell proliferation kit (Aurogene, Rome, Italy), after 24, 48, and 72 h treatment at 37 °C in 5% CO2. Cells were treated with different compounds/absorbance values of control (cells incubated with vehicle alone) cells * 100%. Statistical analysis was performed by the Student’s t-test (2-tailed) to assess differences between means of data analyzed. The p-values are indicated in the figure legends. The statistical analysis of differences was performed with GraphPad Prism 8.

[6] = test system: NK92 cells killing K562 target cells; test: NK92 cell-mediated cytotoxicity against K562 cells, LDH release; format: cell-based, Human; settings: NK92 treated 48 h with 5 to 20 μM, E:T ratio 10:1, 4 h with K562, LDH release, 4 independent experiments
Method: To determine NK-92’s cell cytotoxicity, CytoTox 96 non-radioactive cytotoxicity assay (Promega, Madison, WI) was used, based on the colorimetric detection of the released enzyme LDH. NK-92 cells were harvested, washed, counted, and diluted at the concentration of 1 × 10^6 cells/mL in BM with 10% FCS and 100 μ/mL of IL-2. […] Target cells were harvested, washed, resuspended to 1 × 10^5 cells/mL in BM, added, and incubated with effector cells for 4 h at 37 °C employing incresingincreasing effector/target cell ratio ranging from 0.625:1 to 10:1 in triplicate. A total of 50 μL of supernatants were assayed for LDH activity according to the manufacturer’s instruction. Controls for spontaneous and maximum LDH release in effector and target cells were also assayed. The calculation of cytotoxicity percentage was as follows: (Experimental—Effector Spontaneous—Target spontaneous)/(Target Maximum—Target Spontaneous) × 100. Data are expressed as mean ± standard deviation from 4 independent experiments. […] The statistical analysis was performed with GraphPad Prism 8.

| Compound | effect on NK-92 cells at the higher dose ([1]; 50 μM) | apoptosis of NK-92 cells ([1]; 6.25 to 50 μM, all concentrations except 50 μM, Annexin V-FITC) | proliferation of NK-92 cells [2] | comparative cell viability reduction (3 versus AE (2); 6 versus 3 at 20 μM) [3] | concentration at which effect on cell viability is already seen [3] | comparative cell viability reduction (3 versus AE (2); 6 versus 3 at 20 μM) [4] | concentration at which effect on cell viability is already seen [4] | growth inhibition of NK-92 cells [5] | NK92-mediated cytotoxicity against K562 compared with untreated NK92 cells [6] |
| --- | --- | --- | --- | --- | --- | --- | --- | --- | --- |
| O=C1c2cccc(O)c2C(=O)c2c(O)cc(CO)cc21 [compound 2, 8-dihydroxy-3-hydroxymethyl-anthraquinone] | cytotoxic effect | neither AE (2) induced apoptosis or affected proliferation | neither AE (2) induced apoptosis or affected proliferation | – | – | – | – | – | – |
| O=C(O)CCCC(=O)OCc1cc(O)c2c(c1)C(=O)c1cccc(O)c1C2=O [compound 3, 5-((4,5-dihydroxy-9,10-dioxo-9,10-dihydroanthracen-2-yl)methoxy)-5-oxopentanoic acid] | – | – | – | more effective | effective already at 5 µM | more effective | effective already at 5 µM | did not induce growth inhibition | less NK92-mediated cytotoxicity than the control sample |
| CC(C)C[C@H](NC(=O)CNC(=O)[C@@H]1CCCN1C(=O)CNC(=O)[C@@H](NC(=O)[C@H](CCCCN)NC(=O)[C@H](CCCNC(=N)N)NC(=O)[C@H](CCCCN)NC(=O)[C@H](CCCCN)NC(=O)[C@H](CCCCN)NC(=O)[C@@H]1CCCN1C(=O)CCCC(=O)OCc1cc(O)c2c(c1)C(=O)c1cccc(O)c1C2=O)C(C)C)C(=O)N[C@H](C(=O)N[C@H](C(=O)N[C@@H](CO)C(=O)N1CCC[C@H]1C(=O)N[C@@H](Cc1c[nH]c2ccccc12)C(=O)N[C@@H](Cc1ccc(O)cc1)C(=O)O)C(C)C)[C@@H](C)O [compound 6] (X1-PKKKRKVGPGLTVSPWY-OH) | – | – | – | – | – | – | – | did not induce growth inhibition | – |
